Measured values taken from patent publication US6544964B1, “Method for fixing or separating ions, in particular of lead, using per(3,6-anhydro)cy-clodextrin derivatives” (priority 1997, dated 2003).

Tests used:
[1] = Affinity constant for Pb from the NMR results of examples 2 to 4; assay type: binding; conditions: aqueous solution (D2O), 298 K
Method: (§1) To an aqueous solution of the permethyl derivative obtained in example 1 is added an aqueous lead nitrate solution in order to obtain an aqueous solution containing 3 mmole/l of permethyl derivative and 1 mmole/l of lead nitrate. The solution obtained is analyzed by nuclear magnetic resonance under the same conditions as in example 1 (500 MHz, D2O, 298 K).
(§2) The same operating procedure as in example 2 is followed, but the aqueous solution incorporates 3 mmole/l of the permethyl derivative of example 1 and 3 mmole/l of lead nitrate.
(§3) The same operating procedure as in example 3 is followed, but addition also takes place of sodium nitrate so as to obtain an aqueous solution incorporating 3 mmole/l of the permethyl derivative of example 1, 3 mmole/l of lead nitrate and 3 mmole/l of sodium nitrate.

[2] = Formation of the lead complex in aqueous solution, followed by proton NMR; assay type: binding
Method: as §1
In this case, the exchange is sufficiently slow compared with the NMR observation time, to observe the two signals corresponding to the free cyclodextrin (FIG. 1(a)) and to the complex (FIG. 1(b)).
as §2, §3

Substance	affinity constant for Pb [1]	NMR spectrum of the lead complex in presence of sodium ions ([2]; 3 mmole/l derivative, 3 mmole/l lead nitrate, 3 mmole/l sodium nitrate)	lead complexation (respective surfaces of free and complexed parts) ([2]; 3 mmole/l permethyl derivative, 1 mmole/l lead nitrate, D2O, 298 K, 500 MHz, free:complexed 2 for 1)	lead complexation (NMR signals) ([2]; 3 mmole/l permethyl derivative, 3 mmole/l lead nitrate, D2O, 298 K)
hexakis (3,6-anhydro)cyclomaltohexaose [reference compound]	approximately 2500	–	–	–
Hexakis (3,6-Anhydro-2-0-methyl)cyclomaltohexaose [Example 1]	approximately 10^5	not modified	all the lead present is complexed	only the signals of the complex are visible
